Experimental data: US20170188606A1, “COMPOUNDS, COMPOSITIONS, AND METHODS FOR REDUCING OR E[…] TASTE” (Chromocell Corporation, priority 2014, published 2017)

Tests used:
[1] = test system: bitter taste receptor (T2R); settings: Compound 1 3.2 mM in the absence of rebaudioside A; vs vehicle control
Experimental: Both the rebaudioside A and Compound 1 solutions were prepared in a standard HEPES buffer solution. Rebaudioside A was evaluated at a concentration of 825 μM and Compound 1 was evaluated at 3.2 mM (in the presence and absence of 825 μM rebaudioside A) and compared to vehicle control (HEPES buffer solution). Cells were incubated with a calcium responsive dye for one hour at 37 C and then exposed to rebaudioside A, Compound 1 (in the presence and absence of 825 μM rebaudioside A) and vehicle control. Change in fluorescence prior to compound addition and after compound addition was monitored for five minutes using a Hamamatsu Functional Drug Screening System (FDSS) 6000. The difference in fluorescence response over vehicle control was calculated using maximal cellular responses for each compound.

[2] = test system: bitterness of 500 ppm RebA; test: Discrimination testing with sureness (Latin square 2-AFC) and R-index analysis, aqueous RebA; assay type: in vivo, Humans; settings: 5 ppm in 500 ppm RebA, Discrim. Sureness, N 34, vs control
Text: The discrimination testing with sureness extends the simple yes/no task of discrimination test in a signal detection procedure to include a sureness rating scale. The discrimination test principle is based on two alternative forced choice (2-AFC) manner, in this methodology, panelists are presented with multiple samples, in which one sample is a control, and the other sampled are test variants. A blind control is included in the test variants along with a known control. Panelists are asked to first discriminate between the known control and a variant by identifying which the sample is less bitter. Second, panelists rate their sureness of their response (e.g., sure, unsure, or guess).
To minimize bias and prevent panelist expectation of sample order, a Latin square randomization design is utilized. The samples within a set will be randomized and the sets are randomized via Latin square. The number of presentations is equally distributed. Each of the test samples is evaluated against a negative control sample to calculate R-index score and associated p-value. […] R-index is utilized to indicate the degree of difference between the test and the control sample. […]
The blocker candidates were evaluated in a “sip and spit” format using this methodology and analysis and were the results of at least 30 observations (e.g., 15 panelists and 2 replications or 10 panelists 3 replications).

[3] = test system: bitter taste in grape-flavored cough syrup (Robitussin Cough and Cold CF); test: Cough syrup 2-AFC analysis (Example 3); assay type: in vivo, Humans; settings: 0.1 ppm in cough syrup; testers n=7
Experimental: (§1) Compound 1 was screened for a reduction of bitter taste due to a bitter tastant in children's grape flavored cough syrup (Robitussin Cough and Cold CF™, Lot #: R10494, Exp. 07/15). Compound 1 was solubilized in […] (PG), dosed into the cough syrup, and placed in 3 mL amounts in sample vials. Control samples contained an equal amount of PG to samples containing Compound 1. Testers (n=7) were asked to use a plastic transfer pipette for tasting, rinsing with water between samples and choosing the less bitter sample via the two alternative forced choice (2-AFC) method.

[4] = test system: bitter taste in grape-flavored cough syrup (Robitussin Cough and Cold CF); test: Cough syrup 2-AFC analysis with 50 ppb and 100 ppb (Example 4); assay type: in vivo, Humans; settings: for Cmpd. Chosen Overall: chosen as less bitter, n=11
Experimental: as §1, with “2.5” for “3”, “vials to afford 50 ppb or 100 ppb Compound 1 in the samples.” for “vials.”, “(n=11)” for “(n=7)”

[5] = test system: bitter taste of rebaudioside A; test: Descriptive analysis (DA) panel taste test, aqueous rebaudioside A
sweetness perception = test: Inherent sweetness assessment using 2-AFC method vs 1.5% sucrose; assay type: in vivo, human; settings: for % correct: % needed 67%; for x (choosing Sample 1 as sweeter): n 36
Experimental: Sucrose solutions were prepared by adding sucrose to water to achieve the desired concentrations. Compounds were first prepared as 250-fold concentrated stocks in a 50% ethanol (200 proof), 50% water solution. These concentrated stocks were then diluted in water to achieve a final ethanol concentration of 0.2%. The control solutions were also normalized to 0.2% ethanol.
Compound 1 was evaluated in an aqueous solution for sweetness perception in a 2-AFC test. This test was a double-blinded, randomized study where taste panelists evaluate a pair of solutions one at a time for sweetness. Panelists were instructed not to eat or drink (except water) for at least one hour before the test. During the test, panelists were instructed to sip each sample, swirl it around their mouth and then expectorate. After tasting each sample in the pair, panelists were instructed to record the sample that is “sweeter” in taste. Panelists cleansed their palates by rinsing with water, eating a cracker and waiting for an interval of about 5 minutes. Each pair was tasted twice. All samples were tasted at ambient temperatures. Compound 1 (at various concentrations) was evaluated in comparison to the control, 1.5% sucrose. The flavor and extract manufacturers association (FEMA) characterizes any compound that has a sweetness intensity greater than that of 1.5% in a water base as inherently sweet.
Control Sample (Sample 1): 1.5% sucrose in water
Test Samples (Sample 2): • 10 μg/mL (10 ppm) Compound 1 in 0.2% ethanol in water • 2 μg/mL (2 ppm) Compound 1 in 0.2% ethanol in water • 0.5 μg/mL (500 ppb) Compound 1 in 0.2% ethanol in water
Eighteen subjects completed two replicates of a 2-AFC test for sweetness. Thirty three responses indicated the Control Sample was sweeter for each of the test samples evaluated. Three responses indicated the Test Sample was sweeter for each of the test samples evaluated. Using a beta binomial distribution, p=0.000 (two-sided alternative).

[6] = test system: bitter taste of Orange VitaminWater (Stevia Leaf Extract, rebaudioside A); test: Descriptive analysis (DA) panel taste test, Orange VitaminWater
[7] = Panel A, 500 ppm RebA + Compound 1 @7.5 ppm in water, 15 cm scale
[8] = Panel B, fully solubilized, 500 ppm Reb-A + Compound 1 @0.3 ppm, aqueous, 0.2% ethanol
[9] = Compound 1 @ 0.5 μg/mL in water vs 1.5% sucrose
[10] = Compound 1 @ 2 μg/mL in water vs 1.5% sucrose
[11] = Compound 1 @ 10 μg/mL in water vs 1.5% sucrose
[12] = Panel A, Orange Vitamin Water Zero + Compound 1 @5 ppm, 15 cm scale
[13] = Panel B, fully solubilized, Orange VitaminWater (head: 500 ppm Reb-A) + Compound1 @0.25 ppm, 0.2% ethanol

## CN[C@@H](Cc1c[nH]c2ccccc12)C(=O)O [Compound 1, N-methyl-L-tryptophan]
[1]
  fluorescent response from Compound 1 on its own: not significantly different from vehicle control
[2]
  R-index: 63.3%
[3]
  Compound Chosen as Less Bitter: 5
  Control Chosen as Less Bitter: 1
  No Choice Made: 1
[4]; 50 ppb in cough syrup
  Chosen if 1st in Pair: 5/6
  Chosen if 2nd in Pair: 2/5
  Chosen in 1st Pair: 5/6
  Chosen in 2nd Pair: 2/5
  Cmpd. Chosen Overall: 7/11
[4]; 100 ppb in cough syrup
  Chosen if 1st in Pair: 4/5
  Chosen if 2nd in Pair: 3/6
  Chosen in 1st Pair: 3/5
  Chosen in 2nd Pair: 4/6
  Cmpd. Chosen Overall: 7/11
[5]; [7]
  Bitter: 5.32
  Bitter Aft: 3.18
  HPB: 7.70
  Licorice: 6.58
  Sweet Aft: 4.71
  Sweet Linger: 2.55
[5]; [8]
  Bitter: 3.4
  Bitter Aft: 1.6
  HPB: 5
Sweetness perception; [9]
  d′: 1.956
  % correct: 92%
  x (choosing Sample 1 as sweeter): 33
Sweetness perception; [10]
  d′: 1.956
  % correct: 92%
  x (choosing Sample 1 as sweeter): 33
Sweetness perception; [11]
  d′: 1.956
  % correct: 92%
  x (choosing Sample 1 as sweeter): 33
Sweetness perception; concentrations up to 10 μg/mL (10 ppm), 0.2% ethanol in water, vs 1.5% sucrose
  inherent sweetness: do not elicit inherent sweetness
[6]; [12]
  Bit Aft: 2.94
  Bitter: 4.97
  HPB: 6.83
  Licorice: 2.74
  Swt Aft: 3.89
  Swt Linger: 1.99
[6]; [13]
  Bitter: 3.9
  HPB: 5.4
